Measured values reported in EP3835316A1, “MOLECULES FOR USE TO TREAT OR PREVENT CARDIAC DISEASES” (Universiteit Gent, priority 2019, dated 2021).

Target: T1, Cx43 HC (Mus musculus, UniProt P23242)
T1 construct: left ventricular isolated cardiomyocytes were collected; endogenous in cells; host or cells: left ventricular cardiomyocytes acutely isolated from adult C57BL6 mice
Experiment: Whole cell voltage-clamp recording of Cx43 HC unitary currents activated by combined RyR activation (caffeine)/[Ca2+]i elevation in isolated ventricular cardiomyocytes
Type: cell-based
Settings: RyR inhibitors; [Ca2+]i clamped to 250 nM (10 mM BAPTA); Vm = -70 mV
Description: Adult C57BL6 mice, between 10 - 16 weeks, were heparinized (5000 IU/kg IP) and sacrificed by cervical dislocation. Following thoracotomy, the heart was quickly excised and then transferred to a Langendorff apparatus and perfused at a constant flow (^∼3 mL/min) and temperature (37°C). The heart was digested using collagenase and protease and left ventricular isolated cardiomyocytes were collected. Ca^2+-tolerant cells were used for the experiment for the next 6 hours. In case of Cx43 knockdown (KD) (Cx43^CreER(T)/fl) and respective control mice (Cre43^fl/fl) the isolation procedures were preceded by daily injection of tamoxifen to achieve global knockdown condition^25. Cre43^fl/fl mice are available from The Jackson Laboratory and the Cx43^CreER(T)/fl transgenic mouse strain can be made by any method known in the art.
Isolated ventricular cardiomyocytes and HeLa-Cx43 cells were studied under whole cell voltage-clamp to record membrane currents. Patch clamp experiments were conducted at room temperature (22 ± 1 °C). Fluo-4 (25 µM) was used to detect the [Ca^2+]i transients during the current recording.
Caffeine triggers two combined events, RyR activation and subsequent [Ca^2+]i elevation, and we next aimed to separate both processes. […] For simplicity, we further refer to the calculated concentrations in the following text. […]

T1 sequence (P23242 whole entry): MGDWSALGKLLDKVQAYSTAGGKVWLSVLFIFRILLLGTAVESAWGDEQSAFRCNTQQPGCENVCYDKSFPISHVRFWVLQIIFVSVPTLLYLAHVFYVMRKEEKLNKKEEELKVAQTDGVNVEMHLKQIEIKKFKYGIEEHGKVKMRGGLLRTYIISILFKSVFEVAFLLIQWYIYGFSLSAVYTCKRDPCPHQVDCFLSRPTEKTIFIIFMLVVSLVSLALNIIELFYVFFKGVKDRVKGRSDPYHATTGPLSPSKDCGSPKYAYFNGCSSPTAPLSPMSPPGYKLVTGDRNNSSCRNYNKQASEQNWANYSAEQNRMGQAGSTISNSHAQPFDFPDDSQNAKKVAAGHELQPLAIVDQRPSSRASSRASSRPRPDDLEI

Compound | caffeine-induced Cx43 HC activation
O=C1CN(/N=C/c2ccc(-c3ccc([N+](=O)[O-])cc3)o2)C(O)=N1 [dantrolene] | did not inhibit
ryanodine | did not inhibit
